According to ChEMBL document CHEMBL3779887, “Robenidine Analogues as Gram-Positive Antibacterial Agents” (J Med Chem, 2016):
Values after ≈ are worked out from the molar mass of the structure shown. Active and inactive are the calls of the source. No cut-off for these calls is given here.

Assays:
Format in all cases: functional
[1] = test system: Staphylococcus aureus; assay: Antibacterial activity against methicillin-resistant Staphylococcus aureus after 20 to 24 hrs
[2] = test system: Enterococcus; assay: Antibacterial activity against vancomycin-resistant Enterococcus after 20 to 24 hrs
[3] = test system: Escherichia coli; assay: Antibacterial activity against Escherichia coli ATCC 25922 after 20 to 24 hrs
[4] = test system: Pseudomonas aeruginosa; assay: Antibacterial activity against Pseudomonas aeruginosa ATCC 27853 after 20 to 24 hrs

Row | SMILES | MIC [1] [µM] | MIC [2] [µM] | MIC [3] [µM] | MIC [4] [µM] | Activity [1] | Activity [2] | Activity [3]
1 | N=C(N/N=C/c1ccc2ccccc2c1)N/N=C/c1ccc2ccccc2c1 | 239 (≈ 87.3 µg/mL) | 159 (≈ 58.1 µg/mL) |  |  |  |  | 
2 | N=C(N/N=C/c1ccccc1O)N/N=C/c1ccccc1O | 36 (≈ 10.7 µg/mL) | 240 (≈ 71.4 µg/mL) | > 400 | > 400 |  |  | 
3 | N=C(N/N=C/c1cnc2ccccc2n1)N/N=C/c1cnc2ccccc2n1 |  |  |  |  | inactive | inactive | 
4 | N=C(N/N=C/c1ccccc1)N/N=C/c1ccccc1 | > 400 | > 400 | > 400 | > 400 |  |  | 
5 | N=C(N/N=C/c1ccc(OC(F)(F)F)cc1)N/N=C/c1ccc(OC(F)(F)F)cc1 | 187 (≈ 81 µg/mL) | 85 (≈ 36.8 µg/mL) | > 400 | > 400 |  |  | 
6 | N=C(N/N=C/c1cccc(F)c1)N/N=C/c1cccc(F)c1 | 47 (≈ 14.2 µg/mL) | 71 (≈ 21.4 µg/mL) | > 400 | > 400 |  |  | 
7 | Cc1ccc(/C=N/NC(=N)N/N=C/c2ccc(C)cc2)cc1 | 9.1 (≈ 2.67 µg/mL) | 12.1 (≈ 3.55 µg/mL) | > 400 | > 400 |  |  | 
8 | N=C(N/N=C/C(=C/c1ccccc1)c1ccccc1)N/N=C/C(=C/c1ccccc1)c1ccccc1 | 61 (≈ 28.6 µg/mL) | > 400 |  |  |  |  | 
9 | CCCC/C(=N\NC(=N)N/N=C(\CCCC)c1ccc(Cl)cc1)c1ccc(Cl)cc1 | > 400 | > 400 |  |  |  |  | inactive
10 | CC/C(=N\NC(=N)N/N=C(\CC)c1ccc(Cl)cc1)c1ccc(Cl)cc1 | 56 (≈ 21.9 µg/mL) | 18.7 (≈ 7.3 µg/mL) |  |  |  |  | inactive
11 | N=C(N/N=C/c1ccc2[nH]ccc2c1)N/N=C/c1ccc2[nH]ccc2c1 | 31.6 (≈ 10.9 µg/mL) | 42 (≈ 14.4 µg/mL) |  |  |  |  | 
12 | N=C(N/N=C/c1ccc(Cl)cc1F)N/N=C/c1ccc(Cl)cc1F | 6.1 (≈ 2.26 µg/mL) | 7.4 (≈ 2.74 µg/mL) | > 400 | > 400 |  |  | 
13 | C/C(=N\NC(=N)N/N=C(\C)c1ccc(N2CCNCC2)cc1)c1ccc(N2CCNCC2)cc1 | 243 (≈ 112 µg/mL) | 278 (≈ 128 µg/mL) |  |  |  |  | inactive
14 | COc1ccc(/C=N/NC(=N)N/N=C/c2ccc(OC)c(O)c2)cc1O | > 400 | > 400 | > 400 | > 400 |  |  | 
15 | N=C(N/N=C/c1csc2ccc(Cl)cc12)N/N=C/c1csc2ccc(Cl)cc12 | > 400 | 33.1 (≈ 14.8 µg/mL) |  |  |  |  | 
16 | N=C(N/N=C/c1cnc2ccccc2c1)N/N=C/c1cnc2ccccc2c1 |  |  |  |  | inactive | inactive | 
17 | N=C(N/N=C/c1ccccc1Br)N/N=C/c1ccccc1Br | > 400 | > 400 | > 400 | > 400 |  |  | 
18 | N=C(N/N=C(\C(=O)O)c1ccccc1)N/N=C(\C(=O)O)c1ccccc1 | > 400 | > 400 |  |  |  |  | inactive
19 | N=C(N/N=C(\CN)c1ccccc1)N/N=C(\CN)c1ccccc1 | > 400 | > 400 |  |  |  |  | inactive
20 | CCCCc1ccc(/C=N/NC(=N)N/N=C/c2ccc(CCCC)cc2)cc1 | 232 (≈ 87.6 µg/mL) | 193 (≈ 72.9 µg/mL) | > 400 | > 400 |  |  | 
21 | C#Cc1ccc(/C=N/NC(=N)N/N=C/c2ccc(C#C)cc2)cc1 | > 400 | 17.2 (≈ 5.39 µg/mL) | > 400 | > 400 |  |  | 
22 | N=C(N/N=C/c1c(Cl)cccc1Cl)N/N=C/c1c(Cl)cccc1Cl | > 400 | > 400 | > 400 | > 400 |  |  | 

Row | SMILES | MIC [1] [µM] | MIC [2] [µM] | MIC [3] [µM] | MIC [4] [µM] | Activity [1] | Activity [2] | Activity [3]
23 | N=C(N/N=C/c1cc(Cl)cc(Cl)c1)N/N=C/c1cc(Cl)cc(Cl)c1 | > 400 | > 400 | > 400 | > 400 |  |  | 
24 | N=C(N/N=C/c1c(F)c(F)c(F)c(F)c1F)N/N=C/c1c(F)c(F)c(F)c(F)c1F | > 400 | > 400 | > 400 | > 400 |  |  | 
25 | COc1cc(Br)c(/C=N/NC(=N)N/N=C/c2cc(OC)c(OC)cc2Br)cc1OC | > 400 | > 400 | > 400 | > 400 |  |  | 
26 | N=C(N/N=C/c1ccc(C(F)(F)F)cc1)N/N=C/c1ccc(C(F)(F)F)cc1 | 36.5 (≈ 14.6 µg/mL) | 11.4 (≈ 4.57 µg/mL) | > 400 | > 400 |  |  | 
27 | N=C(N/N=C/c1cc(O)c(O)c(O)c1)N/N=C/c1cc(O)c(O)c(O)c1 | 161 (≈ 58.2 µg/mL) | > 400 | > 400 | 322 (≈ 116 µg/mL) |  |  | 
28 | N=C(N/N=C/c1cccc(Cl)c1)N/N=C/c1cccc(Cl)c1 | 8.1 (≈ 2.71 µg/mL) | 10.8 (≈ 3.61 µg/mL) | > 400 | > 400 |  |  | 
29 | CSc1ccc(/C=N/NC(=N)N/N=C/c2ccc(SC)cc2)cc1 | 61 (≈ 21.8 µg/mL) | 12.7 (≈ 4.54 µg/mL) | > 400 | > 400 |  |  | 
30 | N=C(N/N=C/c1ccc(Cl)cc1Cl)N/N=C/c1ccc(Cl)cc1Cl | > 400 | > 400 | > 400 | > 400 |  |  | 
31 | N=C(N/N=C/c1ccc(F)cc1)N/N=C/c1ccc(F)cc1 | 47 (≈ 14.2 µg/mL) | 23.7 (≈ 7.14 µg/mL) | > 400 | > 400 |  |  | 
32 | COc1cc(/C=N/NC(=N)N/N=C/c2ccc(O)c(OC)c2)ccc1O | 244 (≈ 87.2 µg/mL) | 163 (≈ 58.3 µg/mL) | > 400 | > 400 |  |  | 
33 | Cc1ccccc1/C=N/NC(=N)N/N=C/c1ccccc1C | 121 (≈ 35.5 µg/mL) | 61 (≈ 17.9 µg/mL) | > 400 | > 400 |  |  | 
34 | CCC/C(=N\NC(=N)N/N=C(\CCC)c1ccc(Cl)cc1)c1ccc(Cl)cc1 | > 400 | > 400 |  |  |  |  | inactive
35 | N=C(N/N=C/c1ccccc1Cl)N/N=C/c1ccccc1Cl | > 400 | > 400 | > 400 | > 400 |  |  | 
36 | N=C(N/N=C/c1ccc(O)c([N+](=O)[O-])c1)N/N=C/c1ccc(O)c([N+](=O)[O-])c1 | > 400 | > 400 | > 400 | > 400 |  |  | 
37 | CC(=O)Nc1ccc(/C=N/NC(=N)N/N=C/c2ccc(NC(C)=O)cc2)cc1 | > 400 | > 400 | > 400 | > 400 |  |  | 
38 | N=C(N/N=C/c1ccncc1)N/N=C/c1ccncc1 | > 400 | > 400 |  |  |  |  | 
39 | N=C(N/N=C/C=C/c1ccccc1)N/N=C/C=C/c1ccccc1 | > 400 | > 400 |  |  |  |  | 
40 | N=C(N/N=C/c1cccnc1N)N/N=C/c1cccnc1N | > 400 | > 400 |  |  |  |  | 
41 | N=C(N/N=C/c1cccc(O)c1O)N/N=C/c1cccc(O)c1O | 88 (≈ 29 µg/mL) | 262 (≈ 86.3 µg/mL) | > 400 | > 400 |  |  | 
42 | CN(C)c1ccc(/C=N/NC(=N)N/N=C/c2ccc(N(C)C)cc2O)c(O)c1 | 229 (≈ 87.8 µg/mL) | 76 (≈ 29.1 µg/mL) | > 400 | > 400 |  |  | 
43 | CC(O)Nc1cc(Cl)ccc1/C=N/NC(=N)N/N=C/c1ccc(Cl)cc1NC(C)O (stereo not given) | 66 (≈ 29.9 µg/mL) | 98 (≈ 44.3 µg/mL) | > 400 | > 400 |  |  | 
44 | N=C(N/N=C/c1ccccc1-c1ccccc1)N/N=C/c1ccccc1-c1ccccc1 | > 400 | > 400 | > 400 | > 400 |  |  | 

Row | SMILES | MIC [1] [µM] | MIC [2] [µM] | MIC [3] [µM] | MIC [4] [µM] | Activity [1] | Activity [2] | Activity [3]
45 | N=C(N/N=C/c1ccccc1F)N/N=C/c1ccccc1F | > 400 | > 400 | > 400 | > 400 |  |  | 
46 | COc1cc(/C=N/NC(=N)N/N=C/c2cc(O)c(O)c(OC)c2)cc(O)c1O | > 400 | > 400 | > 400 | > 400 |  |  | 
47 | Cc1cccc(/C=N/NC(=N)N/N=C/c2cccc(C)c2O)c1O | > 400 | > 400 | > 400 | > 400 |  |  | 
48 | N=C(N/N=C/c1cc(F)ccc1F)N/N=C/c1cc(F)ccc1F | > 400 | > 400 | > 400 | > 400 |  |  | 
49 | C/C(=N\NC(=N)N/N=C(\C)c1ccc(C(C)(C)C)cc1)c1ccc(C(C)(C)C)cc1 | 4.5 (≈ 1.83 µg/mL) | 36.2 (≈ 14.7 µg/mL) |  |  |  |  | inactive
50 | C/C(=N\NC(=N)N/N=C(\C)c1ccc(C)cc1)c1ccc(C)cc1 | 11.2 (≈ 3.6 µg/mL) | 8.4 (≈ 2.7 µg/mL) |  |  |  |  | inactive
51 | C/C(=N\NC(=N)N/N=C(\C)c1ccc(Br)cc1)c1ccc(Br)cc1 | 16.4 (≈ 7.4 µg/mL) | 24.6 (≈ 11.1 µg/mL) |  |  |  |  | inactive
52 | N=C(N/N=C/c1cccc(O)c1)N/N=C/c1cccc(O)c1 | 192 (≈ 57.1 µg/mL) | 288 (≈ 85.6 µg/mL) | > 400 | > 400 |  |  | 
53 | CC(=O)Nc1cc(Cl)ccc1/C=N/NC(=N)N/N=C/c1ccc(Cl)cc1NC(C)=O | > 400 | > 400 | > 400 | > 400 |  |  | 
54 | N=C(N/N=C/c1ccc(SC(F)(F)F)cc1)N/N=C/c1ccc(SC(F)(F)F)cc1 | 96 (≈ 44.7 µg/mL) | 135 (≈ 62.8 µg/mL) | > 400 | > 400 |  |  | 
55 | COc1ccc(/C=N/NC(=N)N/N=C/c2ccc(OC)cc2)cc1 | > 400 | > 400 | > 400 | > 400 |  |  | 
56 | COc1ccccc1/C=N/NC(=N)N/N=C/c1ccccc1OC | > 400 | 358 (≈ 116 µg/mL) | > 400 | > 400 |  |  | 
57 | N=C(N/N=C/c1ccc(O)cc1O)N/N=C/c1ccc(O)cc1O | > 400 | > 400 | > 400 | > 400 |  |  | 
58 | CCCc1ccc(/C=N/NC(=N)N/N=C/c2ccc(CCC)cc2)cc1 | 83 (≈ 29 µg/mL) | 73 (≈ 25.5 µg/mL) | > 400 | > 400 |  |  | 
59 | C/C(=N\NC(=N)N/N=C(\C)c1ccc(C(F)(F)F)cc1)c1ccc(C(F)(F)F)cc1 | > 400 | 17.2 (≈ 7.39 µg/mL) |  |  |  |  | inactive
60 | N=C(N/N=C/c1ccc(Cl)cc1N)N/N=C/c1ccc(Cl)cc1N | 5 (≈ 1.82 µg/mL) | 6.3 (≈ 2.29 µg/mL) | > 400 | > 400 |  |  | 
61 | COc1ccc(/C=N/NC(=N)N/N=C/c2ccc(OC)c(OC)c2)cc1OC | > 400 | > 400 | > 400 | > 400 |  |  | 
62 | N=C(N/N=C/C1CCCCC1)N/N=C/C1CCCCC1 | 408 (≈ 113 µg/mL) | 306 (≈ 84.9 µg/mL) |  |  |  |  | 
63 | N=C(N/N=C/c1cnccc1Cl)N/N=C/c1cnccc1Cl | 172 (≈ 57.8 µg/mL) | 86 (≈ 28.9 µg/mL) |  |  |  |  | 
64 | COc1ccc(/C=C/C=N/NC(=N)N/N=C/C=C/c2ccc(OC)cc2)cc1 | 309 (≈ 117 µg/mL) | > 400 |  |  |  |  | 
65 | C/C(=N\NC(=N)N/N=C(\C)c1ccccc1)c1ccccc1 | 18.2 (≈ 5.34 µg/mL) | 49 (≈ 14.4 µg/mL) |  |  |  |  | inactive
